Reference: PubChem BioAssay AID192 (DTP/NCI, 2004)
Where “and” joins values, the source holds several entries; their conditions need not be identical. Identical values can stand only once. Inconclusive results and toxic doses are left out.

System: BDF1 mice, B16 melanoma ip, median survival T/C
Experiment: NCI In Vivo Anticancer Drug Screen. Data for tumor model B16 Melanoma (intraperitoneal) in B6D2F1 (BDF1) mice
Conditions: endpoint: median survival time, higher = longer survival
Procedure, shortened: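 Each result divides a survival or tumor-size measurement in the compound-treated group by the same measurement in the vehicle group.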

[1] = dose: 100.0 mg/kg/injection, schedule: Q01DX009 (ip), vehicle: saline
[2] = dose: 200.0 mg/kg/injection, schedule: Q01DX009 (ip), vehicle: saline
[3] = dose: 100.0 mg/kg/injection, schedule: Q01DX009 (ip), vehicle: Klucel (hydroxypropylcellulose) (HPC)
[4] = dose: 200.0 mg/kg/injection, schedule: Q01DX009 (ip), vehicle: Klucel (hydroxypropylcellulose) (HPC)
[5] = dose: 25.0 mg/kg/injection, schedule: Q01DX009 (ip), vehicle: saline
[6] = dose: 50.0 mg/kg/injection, schedule: Q01DX009 (ip), vehicle: saline
[7] = dose: 100.0 mg/kg/injection, schedule: Q01DX009 (ip), vehicle: saline with Tween-80
[8] = dose: 25.0 mg/kg/injection, schedule: Q01DX009 (ip), vehicle: saline with Tween-80
[9] = dose: 50.0 mg/kg/injection, schedule: Q01DX009 (ip), vehicle: saline with Tween-80
[10] = dose: 12.5 mg/kg/injection, schedule: Q01DX009 (ip), vehicle: saline with Tween-80

## CC1CN(CCC#N)CC(C)O1 (configuration not stated)
[1]
  T/C: 95 % of control
[2]
  T/C: 95 % of control

## CCCCCCCC(=O)CCC
[3]
  T/C: 105 % of control
[4]
  T/C: 96 % of control

## CN1C(=O)OC(C)(C)C1=O
dose: 0.78 mg/kg/injection, schedule: Q04DX003 (ip), vehicle: saline
  T/C: 95 % of control
dose: 1.56 mg/kg/injection, schedule: Q04DX003 (ip), vehicle: saline
  T/C: 100 % of control
dose: 3.12 mg/kg/injection, schedule: Q04DX003 (ip), vehicle: saline
  T/C: 105 % of control
dose: 6.25 mg/kg/injection, schedule: Q04DX003 (ip), vehicle: saline
  T/C: 105 % of control
dose: 12.5 mg/kg/injection, schedule: Q04DX003 (ip), vehicle: saline
  T/C: 100 % of control
[5]
  T/C: 110 % of control
[6]
  T/C: 100 % of control
[1]
  T/C: 100 % of control
[2]
  T/C: 97 % of control
dose: 400.0 mg/kg/injection, schedule: Q01DX009 (ip), vehicle: saline
  T/C: 94 % of control

## CC1(C)N=C(N)N=C(N)N1c1ccc(F)c(C(F)(F)F)c1
dose: 3.12 mg/kg/injection, schedule: Q01DX009 (ip), vehicle: saline
  T/C: 96 % of control
dose: 6.25 mg/kg/injection, schedule: Q01DX009 (ip), vehicle: saline
  T/C: 118 % of control
dose: 12.0 mg/kg/injection, schedule: Q01DX009 (ip), vehicle: saline
  T/C: 120 % of control

## COc1cc2c[n+](C)c3c(c2cc1OC)Cc1cc2c(cc1-3)OCO2
[7]
  T/C: 120 % of control

## CS(=O)(=O)OCCC(=O)N1CCN(C(=O)CCOS(C)(=O)=O)CC1
dose: 1.56 mg/kg/injection, schedule: Q01DX009 (ip), vehicle: suspension in saline
  T/C: 114 % of control
dose: 3.12 mg/kg/injection, schedule: Q01DX009 (ip), vehicle: suspension in saline
  T/C: 111 % of control
dose: 6.25 mg/kg/injection, schedule: Q01DX009 (ip), vehicle: suspension in saline
  T/C: 114 % of control
dose: 12.5 mg/kg/injection, schedule: Q01DX009 (ip), vehicle: suspension in saline
  T/C: 124 % of control
[8]
  T/C: 150 % of control
[9]
  T/C: 152 % of control and 170 % of control
dose: 50.0 mg/kg/injection, schedule: Q01DX009 (ip), vehicle: suspension in saline
  T/C: 171 % of control
[7]
  T/C: 160 % of control

## O=C(Nc1nncs1)c1ccncc1
[10]
  T/C: 100 % of control
[8]
  T/C: 101 % of control
[9]
  T/C: 109 % of control
[7]
  T/C: 113 % of control
dose: 200.0 mg/kg/injection, schedule: Q01DX009 (ip), vehicle: saline with Tween-80
  T/C: 109 % of control

## COc1ccc(OC)c(NC=O)c1
dose: 6.25 mg/kg/injection, schedule: Q01DX009 (ip), vehicle: saline with Tween-80
  T/C: 91 % of control
[10]
  T/C: 106 % of control
[8]
  T/C: 90 % of control and 97 % of control

## COc1ccc(C(=O)Nc2ccccc2)cc1[N+](=O)[O-]
[3]
  T/C: 89 % of control
[4]
  T/C: 100 % of control
dose: 400.0 mg/kg/injection, schedule: Q01DX009 (ip), vehicle: Klucel (hydroxypropylcellulose) (HPC)
  T/C: 94 % of control

## CC(Br)C(=O)NCC(=O)O (configuration not stated)
dose: 12.5 mg/kg/injection, schedule: Q01DX009 (ip), vehicle: saline
  T/C: 101 % of control
[5]
  T/C: 90 % of control
[9]
  T/C: 95 % of control
[6]
  T/C: 101 % of control

## O=C(CCl)NC(Cc1ccc(O)cc1)C(=O)O (configuration not stated)
[8]
  T/C: 105 % of control
[9]
  T/C: 101 % of control
[7]
  T/C: 95 % of control

## O=c1cnn(C2OC(CO)C(O)C2O)c(=O)[nH]1 (configuration not stated)
dose: 75.0 mg/kg/injection, schedule: Q01DX009 (ip), vehicle: Klucel (hydroxypropylcellulose) (HPC)
  T/C: 99 % of control and 100 % of control
dose: 125.0 mg/kg/injection, schedule: Q03HX024 (ip), vehicle: water
  T/C: 116 % of control
dose: 125.0 mg/kg/injection, schedule: Q03HX032 (ip), vehicle: water
  T/C: 119 % of control
dose: 150.0 mg/kg/injection, schedule: Q01DX009 (ip), vehicle: Klucel (hydroxypropylcellulose) (HPC)
  T/C: 92 % of control and 101 % of control
dose: 250.0 mg/kg/injection, schedule: Q03HX024 (ip), vehicle: water
  T/C: 124 % of control
dose: 300.0 mg/kg/injection, schedule: Q01DX009 (ip), vehicle: Klucel (hydroxypropylcellulose) (HPC)
  T/C: 100 % of control and 102 % of control
dose: 600.0 mg/kg/injection, schedule: Q01DX009 (ip), vehicle: Klucel (hydroxypropylcellulose) (HPC)
  T/C: 101 % of control and 102 % of control
dose: 1200.0 mg/kg/injection, schedule: Q01DX009 (ip), vehicle: Klucel (hydroxypropylcellulose) (HPC)
  T/C: 99 % of control
